Legend:
Assay in all cases: 11×7 synergism hit rate
Type in all cases: cell-based
DU145 = conditions: Prostate Cancer DU145, combination with SR16388
From the text: (§1) SR16388 was synthesized in house.
(§2) Within the same type of cancer cells, some cell lines have more synergistic hits than others. Melanoma and breast cancer cell lines had the highest hit rate.

SN12C = conditions: Renal Cancer SN12C, combination with SR16388
From the text: as §1, §2

RPMI8226 = conditions: Leukemia RPMI8226, combination with SR16388
From the text: as §1, §2

MDAMB231 = conditions: Breast Cancer MDAMB231, combination with SR16388
From the text: as §1, §2

HL60 = conditions: Leukemia HL60, combination with SR16388
From the text: as §1, §2

HCC2998 = conditions: Colon Cancer HCC2998, combination with SR16388
From the text: as §1, §2

NCIH23 = conditions: NSCLC NCIH23, combination with SR16388
From the text: as §1, §2

CAKI1 = conditions: Renal Cancer CAKI1, combination with SR16388
From the text: as §1, §2

MALME = conditions: Melanoma MALME, combination with SR16388
From the text: as §1, §2

7860 = conditions: Renal Cancer 7860, combination with SR16388
From the text: as §1, §2

SNB75 = conditions: CNS Cancer SNB75, combination with SR16388
From the text: as §1, §2

U031 = conditions: Renal Cancer U031, combination with SR16388
From the text: as §1, §2

KM12 = conditions: Colon Cancer KM12, combination with SR16388
From the text: as §1, §2

HCT15 = conditions: Colon Cancer HCT15, combination with SR16388
From the text: as §1, §2

TK10 = conditions: Renal Cancer TK10, combination with SR16388
From the text: as §1, §2

SF539 = conditions: CNS Cancer SF539, combination with SR16388
From the text: as §1, §2

LOXIMVI = conditions: Melanoma LOXIMVI, combination with SR16388
From the text: as §1, §2

SF295 = conditions: CNS Cancer SF295, combination with SR16388
From the text: as §1, §2

SF268 = conditions: CNS Cancer SF268, combination with SR16388
From the text: as §1, §2

SKMEL5 = conditions: Melanoma SKMEL5, combination with SR16388
From the text: as §1, §2

K562 = conditions: Leukemia K562, combination with SR16388
From the text: as §1, §2

IGROV1 = conditions: Ovarian Cancer IGROV1, combination with SR16388
From the text: as §1, §2

CCRFCEM = conditions: Leukemia CCRFCEM, combination with SR16388
From the text: as §1, §2

SKOV3 = conditions: Ovarian Cancer SKOV3, combination with SR16388
From the text: as §1, §2

HT29 = conditions: Colon Cancer HT29, combination with SR16388
From the text: as §1, §2

MCF7 = conditions: Breast Cancer MCF7, combination with SR16388
From the text: as §1, §2

COLO205 = conditions: Colon Cancer COLO205, combination with SR16388
From the text: as §1, §2

NCIH460 = conditions: NSCLC NCIH460, combination with SR16388
From the text: as §1, §2

UACC62 = conditions: Melanoma UACC62, combination with SR16388
From the text: as §1, §2

EKVX = conditions: NSCLC EKVX, combination with SR16388
From the text: as §1, §2

U251 = conditions: CNS Cancer U251, combination with SR16388
From the text: as §1, §2

UACC257 = conditions: Melanoma UACC257, combination with SR16388
From the text: as §1, §2

NCIH226 = conditions: NSCLC NCIH226, combination with SR16388
From the text: as §1, §2

T47D = conditions: Breast Cancer T47D, combination with SR16388
From the text: as §1, §2

SKMEL2 = conditions: Melanoma SKMEL2, combination with SR16388
From the text: as §1, §2

BT549 = conditions: Breast Cancer BT549, combination with SR16388
From the text: as §1, §2

NCIH522 = conditions: NSCLC NCIH522, combination with SR16388
From the text: as §1, §2

HOP62 = conditions: NSCLC HOP62, combination with SR16388
From the text: as §1, §2

A549 = conditions: NSCLC A549, combination with SR16388
From the text: as §1

SMILES	% Hit rate (DU145)	% Hit rate (SN12C)	% Hit rate (RPMI8226)	% Hit rate (MDAMB231)	% Hit rate (HL60)	% Hit rate (HCC2998)	% Hit rate (NCIH23)	% Hit rate (CAKI1)	% Hit rate (MALME)	% Hit rate 7860	% Hit rate (SNB75)	% Hit rate (U031)	% Hit rate (KM12)	% Hit rate (HCT15)	% Hit rate (TK10)	% Hit rate (SF539)	% Hit rate (LOXIMVI)	% Hit rate (SF295)	% Hit rate (SF268)	% Hit rate (SKMEL5)	also measured
CC[C@]1(O)C[C@H]2CN(CCc3c([nH]c4ccccc34)[C@@](C(=O)OC)(c3cc4c(cc3OC)N(C=O)[C@H]3[C@@](O)(C(=O)OC)[C@H](OC(C)=O)[C@]5(CC)C=CCN6CC[C@]43[C@@H]65)C2)C1 [Vincristine]	1%	14%	0%	17%	5%	4%	4%	13%	14%	18%	9%	12%	6%	9%	14%	12%	5%	21%	18%	14%	% Hit rate (K562): 8%; % Hit rate (IGROV1): 8%; % Hit rate (CCRFCEM): 8%; % Hit rate (SKOV3): 19%; % Hit rate (HT29): 10%; % Hit rate (MCF7): 25%; % Hit rate (COLO205): 14%; % Hit rate (NCIH460): 19%; % Hit rate (UACC62): 23%; % Hit rate (EKVX): 1%; % Hit rate (U251): 4%; % Hit rate (UACC257): 25%; % Hit rate (NCIH226): 8%; % Hit rate (T47D): 16%; % Hit rate (SKMEL2): 25%; % Hit rate (BT549): 9%; % Hit rate (NCIH522): 10%; % Hit rate (HOP62): 0%; % Hit rate (A549): 10%
CC[C@]1(O)C[C@@H]2CN(CCc3c([nH]c4ccccc34)[C@@](C(=O)OC)(c3cc4c(cc3OC)N(C)[C@H]3[C@@](O)(C(=O)OC)[C@H](OC(C)=O)[C@]5(CC)C=CCN6CC[C@]43[C@@H]65)C2)C1 [Vinblastine]	0%	1%	0%	1%	16%	6%	4%	12%	0%	10%	3%	3%	1%	10%	4%	8%	1%	0%	6%	5%	% Hit rate (K562): 3%; % Hit rate (IGROV1): 0%; % Hit rate (CCRFCEM): 3%; % Hit rate (SKOV3): 8%; % Hit rate (HT29): 8%; % Hit rate (MCF7): 17%; % Hit rate (COLO205): 12%; % Hit rate (NCIH460): 16%; % Hit rate (UACC62): 10%; % Hit rate (EKVX): 1%; % Hit rate (U251): 0%; % Hit rate (UACC257): 6%; % Hit rate (NCIH226): 8%; % Hit rate (T47D): 9%; % Hit rate (SKMEL2): 3%; % Hit rate (BT549): 1%; % Hit rate (NCIH522): 4%; % Hit rate (HOP62): 0%; % Hit rate (A549): 0%
CC(=O)O[C@H]1C(=O)[C@@]2(C)[C@H]([C@H](OC(=O)c3ccccc3)[C@]3(O)C[C@H](OC(=O)[C@H](O)[C@@H](NC(=O)c4ccccc4)c4ccccc4)C(C)=C1C3(C)C)[C@]1(OC(C)=O)CO[C@@H]1C[C@@H]2O [Paclitaxel]	3%	13%	5%	21%	25%	12%	4%	22%	14%	22%	13%	9%	10%	14%	13%	19%	13%	8%	22%	12%	% Hit rate (K562): 12%; % Hit rate (IGROV1): 18%; % Hit rate (CCRFCEM): 14%; % Hit rate (SKOV3): 18%; % Hit rate (HT29): 22%; % Hit rate (MCF7): 31%; % Hit rate (COLO205): 17%; % Hit rate (NCIH460): 35%; % Hit rate (UACC62): 25%; % Hit rate (EKVX): 0%; % Hit rate (U251): 12%; % Hit rate (UACC257): 35%; % Hit rate (NCIH226): 27%; % Hit rate (T47D): 19%; % Hit rate (SKMEL2): 29%; % Hit rate (BT549): 3%; % Hit rate (NCIH522): 10%; % Hit rate (HOP62): 1%

— patent US20130123222A1, “Synergistic Anti-Cancer Activity of SR16388 with Anti-Mitotic Drugs” (SRI INTERNATIONAL, INC., priority 2011, published 2013)
